Results taken from US20240109900A1, “AZABICYCLIC SHP2 INHIBITORS” (IRBM S.P.A., priority 2021, published 2024).

Key:
[1] = molecular target: SHP-2 enzyme (Met1-Leu525) (Homo sapiens (Human), UniProt Q06124); experiment: SHP2 inhibition enzymatic assay; assay type: biochemical; conditions: 0.5 nM SHP-2 activated by 500 nM IRS1 peptide, 75 μM DiFMUP substrate; read-out: SHP2wt-IC50
Outline: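 Compounds were preincubated 30 min with 0.5 nM SHP-2 (Met1-Leu525) plus 500 nM IRS1 activating peptide (pH 7.2 HEPES, 5 mM DTT), then 75 μM DiFMUP substrate reacted 30 min at room temperature. After bpV quench, DiFMUP fluorescence gave % inhibition; four-parameter logistic fit yielded IC50.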

[2] = system: ERK phosphorylation in KYSE-520 cells; experiment: Phospho-ERK cellular assay; assay type: cell-based; conditions: Homo sapiens, KYSE-520, 2 h, KYSE-520 cells, 2 h at 37° C., phospho-ERK1/2 (Thr202/Tyr204) TR-FRET; read-out: PERK IC50
Outline: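 TR-FRET read-out of ERK1/2 Thr202/Tyr204 phosphorylation was taken after overnight antibody incubation at room temperature. Before that, KYSE-520 cells were treated 2 h at 37 °C with compound dilutions and lysed 30 min. Percent inhibition relative to vehicle and cell-free wells was fitted four-parametrically to give IC50.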

SHP-2 enzyme (Met1-Leu525), sequence (Q06124 1-525): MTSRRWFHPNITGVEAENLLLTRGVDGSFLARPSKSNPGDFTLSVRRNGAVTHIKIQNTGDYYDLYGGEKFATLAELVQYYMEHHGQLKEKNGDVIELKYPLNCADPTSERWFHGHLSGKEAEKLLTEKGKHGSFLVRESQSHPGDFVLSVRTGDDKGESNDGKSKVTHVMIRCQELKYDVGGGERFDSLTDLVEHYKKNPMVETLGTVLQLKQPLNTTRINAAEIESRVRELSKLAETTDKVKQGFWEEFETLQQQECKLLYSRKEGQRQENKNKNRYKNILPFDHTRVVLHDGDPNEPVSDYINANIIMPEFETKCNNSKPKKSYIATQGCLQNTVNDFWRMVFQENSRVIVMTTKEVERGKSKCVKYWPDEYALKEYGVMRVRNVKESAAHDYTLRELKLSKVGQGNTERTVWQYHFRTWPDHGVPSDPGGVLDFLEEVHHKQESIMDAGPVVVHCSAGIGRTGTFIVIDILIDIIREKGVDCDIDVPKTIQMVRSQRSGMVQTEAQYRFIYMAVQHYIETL

Compound	IC50 [1]	IC50 [2]
Cc1cc([C@@]2(CN)[C@@H]3CCN(c4cnc5c(-c6ccnc7c(F)cccc67)n[nH]c5n4)C[C@@H]32)no1 [Example 114, ((1S,6R,7S)-3-(3-(8-fluoroquinolin-4-yl)-1H-pyrazolo[3,4-b]pyrazin-6-yl)-7-(5-methylisoxazol-3-yl)-3-azabicyclo[4.1.0]heptan-7-yl)methanamine]	< 500 nM	< 1000 nM
COc1ccc2ncccc2c1-c1n[nH]c2nc(N3CC[C@@H]4[C@H](C3)[C@@]4(CN)c3cc(C)on3)cnc12 [Example 115, ((1S,6R,7S)-3-(3-(6-methoxyquinolin-5-yl)-1H-pyrazolo[3,4-b]pyrazin-6-yl)-7-(5-methylisoxazol-3-yl)-3-azabicyclo[4.1.0]heptan-7-yl)methanamine]	500 to 3000 nM	< 1000 nM
NC[C@]1(c2c(F)cccc2F)[C@@H]2CCN(c3cnc4c(-c5cccn6nccc56)n[nH]c4n3)C[C@@H]21 [Example 116, ((1S,6R,7R)-7-(2,6-difluorophenyl)-3-(3-(pyrazolo[1,5-a]pyridin-4-yl)-1H-pyrazolo[3,4-b]pyrazin-6-yl)-3-azabicyclo[4.1.0]heptan-7-yl)methanamine]	< 500 nM	< 1000 nM
Cn1cc2c(Cl)c(-c3n[nH]c4nc(N5CC[C@@H]6[C@H](C5)[C@@]6(CN)c5c(F)cccc5F)cnc34)ccc2n1 [Example 117, ((1S,6R,7R)-3-(3-(4-chloro-2-methyl-2H-indazol-5-yl)-1H-pyrazolo[3,4-b]pyrazin-6-yl)-7-(2,6-difluorophenyl)-3-azabicyclo[4.1.0]heptan-7-yl)methanamine]	< 500 nM	< 1000 nM
COc1cnc2ccc(-c3n[nH]c4nc(N5CC[C@@H]6[C@H](C5)[C@@]6(CN)c5ccccc5F)cnc34)c(Cl)c2n1 [Example 119, ((1S,6R,7R)-3-(3-(5-chloro-3-methoxyquinoxalin-6-yl)-1H-pyrazolo[3,4-b]pyrazin-6-yl)-7-(2-fluorophenyl)-3-azabicyclo[4.1.0]heptan-7-yl)methanamine]	< 500 nM	< 1000 nM
Cn1cc2c(Cl)c(-c3n[nH]c4nc(N5CC[C@@H]6[C@H](C5)[C@@]6(CN)c5ccc(F)cn5)cnc34)ccc2n1 [Example 120, ((1S,6R,7S)-3-(3-(4-chloro-2-methyl-2H-indazol-5-yl)-1H-pyrazolo[3,4-b]pyrazin-6-yl)-7-(5-fluoropyridin-2-yl)-3-azabicyclo[4.1.0]heptan-7-yl)methanamine]	< 500 nM	< 1000 nM
NC[C@]1(c2ccccc2F)[C@@H]2CCN(c3cnc4c(-c5cccc6c5CC(=O)N6)n[nH]c4n3)C[C@@H]21 [Example 122, 4-(6-((1S,6R,7R)-7-(aminomethyl)-7-(2-fluorophenyl)-3-azabicyclo[4.1.0]heptan-3-yl)-1H-pyrazolo[3,4-b]pyrazin-3-yl)indolin-2-one]	< 500 nM	< 1000 nM
Cn1cc2c(Cl)c(-c3n[nH]c4nc(N5CC[C@@H]6[C@H](C5)[C@@]6(CN)c5ccon5)cnc34)ccc2n1 [Example 123, ((1S,6R,7S)-3-(3-(4-chloro-2-methyl-2H-indazol-5-yl)-1H-pyrazolo[3,4-b]pyrazin-6-yl)-7-(isoxazol-3-yl)-3-azabicyclo[4.1.0]heptan-7-yl)methanamine]	< 500 nM	< 1000 nM
COc1cccc2c(-c3n[nH]c4nc(N5CC[C@@H]6[C@H](C5)[C@@]6(CN)c5cc(C)on5)cnc34)ccnc12 [Example 125, ((1S,6R,7S)-3-(3-(8-methoxyquinolin-4-yl)-1H-pyrazolo[3,4-b]pyrazin-6-yl)-7-(5-methylisoxazol-3-yl)-3-azabicyclo[4.1.0]heptan-7-yl)methanamine]	< 500 nM	< 1000 nM
Cc1cc([C@@]2(CN)[C@@H]3CCN(c4cnc5c(-c6ccc(OC(F)(F)F)c7ncccc67)n[nH]c5n4)C[C@@H]32)no1 [Example 126, ((1S,6R,7S)-7-(5-methylisoxazol-3-yl)-3-(3-(8-(trifluoromethoxy)quinolin-5-yl)-1H-pyrazolo[3,4-b]pyrazin-6-yl)-3-azabicyclo[4.1.0]heptan-7-yl)methanamine]	< 500 nM	< 1000 nM
Cc1cc([C@@]2(CN)[C@@H]3CCN(c4cnc5c(-c6ccc7nn(C)cc7c6C)n[nH]c5n4)C[C@@H]32)no1 [Example 127, ((1S,6R,7S)-3-(3-(2,4-dimethyl-2H-indazol-5-yl)-1H-pyrazolo[3,4-b]pyrazin-6-yl)-7-(5-methylisoxazol-3-yl)-3-azabicyclo[4.1.0]heptan-7-yl)methanamine]	< 500 nM	< 1000 nM
COCc1ccc(-c2n[nH]c3nc(N4CC[C@@H]5[C@H](C4)[C@@]5(CN)c4cc(C)on4)cnc23)c2cccnc12 [Example 128, ((1S,6R,7S)-3-(3-(8-(methoxymethyl)quinolin-5-yl)-1H-pyrazolo[3,4-b]pyrazin-6-yl)-7-(5-methylisoxazol-3-yl)-3-azabicyclo[4.1.0]heptan-7-yl)methanamine]	< 500 nM	< 1000 nM
Cc1cc([C@@]2(CN)[C@@H]3CCN(c4cnc5c(-c6cccn7nccc67)n[nH]c5n4)C[C@@H]32)no1 [Example 129, ((1S,6R,7S)-7-(5-methylisoxazol-3-yl)-3-(3-(pyrazolo[1,5-a]pyridin-4-yl)-1H-pyrazolo[3,4-b]pyrazin-6-yl)-3-azabicyclo[4.1.0]heptan-7-yl)methanamine]	< 500 nM	< 1000 nM

Second part, the compound after the results:

IC50 [1]	IC50 [2]	Compound
< 500 nM	< 1000 nM	Cc1cc([C@@]2(CN)[C@@H]3CCN(c4cnc5c(-c6ccc7nc(C)sc7c6Cl)n[nH]c5n4)C[C@@H]32)no1 [Example 107, ((1S,6R,7S)-3-(3-(7-chloro-2-methylbenzo[d]thiazol-6-yl)-1H-pyrazolo[3,4-b]pyrazin-6-yl)-7-(5-methylisoxazol-3-yl)-3-azabicyclo[4.1.0]heptan-7-yl)methanamine]
< 500 nM	< 1000 nM	Cc1cc([C@@]2(CN)[C@@H]3CCN(c4cnc5c(-c6ccc7nn(C)c(C)c7c6Cl)n[nH]c5n4)C[C@@H]32)no1 [Example 108, ((1S,6R,7S)-3-(3-(4-chloro-2,3-dimethyl-2H-indazol-5-yl)-1H-pyrazolo[3,4-b]pyrazin-6-yl)-7-(5-methylisoxazol-3-yl)-3-azabicyclo[4.1.0]heptan-7-yl)methanamine]
< 500 nM	< 1000 nM	COc1c2c(Cl)c(-c3n[nH]c4nc(N5CC[C@@H]6[C@H](C5)[C@@]6(CN)c5cc(C)on5)cnc34)ccc2nn1C [Example 109, ((1S,6R,7S)-3-(3-(4-chloro-3-methoxy-2-methyl-2H-indazol-5-yl)-1H-pyrazolo[3,4-b]pyrazin-6-yl)-7-(5-methylisoxazol-3-yl)-3-azabicyclo[4.1.0]heptan-7-yl)methanamine]
< 500 nM	< 1000 nM	Cc1cc(C2(CN)C3CCN(c4nc5[nH]nc(-c6ccc7nc(C)sc7c6Cl)c5nc4C)CC32)no1 (centres unmarked) [Example 110, (3-(3-(7-chloro-2-methylbenzo[d]thiazol-6-yl)-5-methyl-1H-pyrazolo[3,4-b]pyrazin-6-yl)-7-(5-methylisoxazol-3-yl)-3-azabicyclo[4.1.0]heptan-7-yl)methanamine]
< 500 nM	< 1000 nM	COc1cnc2ccc(-c3n[nH]c4nc(N5CC[C@@H]6[C@H](C5)[C@@]6(CN)c5cc(C)on5)cnc34)c(Cl)c2n1 [Example 112, ((1S,6R,7S)-3-(3-(5-chloro-3-methoxyquinoxalin-6-yl)-1H-pyrazolo[3,4-b]pyrazin-6-yl)-7-(5-methylisoxazol-3-yl)-3-azabicyclo[4.1.0]heptan-7-yl)methanamine]
< 500 nM	< 1000 nM	Cc1cc([C@@]2(CN)[C@@H]3CCN(c4cnc5c(-c6csc7ncccc67)n[nH]c5n4)C[C@@H]32)no1 [Example 113, ((1S,6R,7S)-7-(5-methylisoxazol-3-yl)-3-(3-(thieno[2,3-b]pyridin-3-yl)-1H-pyrazolo[3,4-b]pyrazin-6-yl)-3-azabicyclo[4.1.0]heptan-7-yl)methanamine]
< 500 nM	< 1000 nM	NC[C@]1(c2ccccc2F)[C@@H]2CCN(c3cnc4c(-c5ccc6ncsc6c5)n[nH]c4n3)C[C@@H]21 [Example 118, ((1S,6R,7R)-3-(3-(benzo[d]thiazol-6-yl)-1H-pyrazolo[3,4-b]pyrazin-6-yl)-7-(2-fluorophenyl)-3-azabicyclo[4.1.0]heptan-7-yl)methanamine]
< 500 nM	< 1000 nM	Cc1nc2ccc(-c3n[nH]c4nc(N5CC[C@@H]6[C@H](C5)[C@@]6(CN)c5ccc(F)cn5)cnc34)c(Cl)c2s1 [Example 121, ((1S,6R,7S)-3-(3-(7-chloro-2-methylbenzo[d]thiazol-6-yl)-1H-pyrazolo[3,4-b]pyrazin-6-yl)-7-(5-fluoropyridin-2-yl)-3-azabicyclo[4.1.0]heptan-7-yl)methanamine]
< 500 nM	< 1000 nM	Cc1nc2ccc(-c3n[nH]c4nc(N5CC[C@@H]6[C@H](C5)[C@@]6(CN)c5ccon5)cnc34)c(Cl)c2s1 [Example 124, ((1S,6R,7S)-3-(3-(7-chloro-2-methylbenzo[d]thiazol-6-yl)-1H-pyrazolo[3,4-b]pyrazin-6-yl)-7-(isoxazol-3-yl)-3-azabicyclo[4.1.0]heptan-7-yl)methanamine]
